Patent US20250304571A1, “BIOLOGICALLY ACTIVE COMPOUNDS AND METHODS THEREOF” (Suzhou Keen Therapeutics Co., Ltd., priority 2022, published 2025)
Where two headings read alike, the source gives them in different places.

Columns and labels:
Type in all cases: cell-based
[1] = system: KP4 (pancreatic ductal adenocarcinoma) cells; assay: Cell viability (CellTiter Glo) assay, inhibition of KP4 cell proliferation; conditions: Homo sapiens, KP-4; KP4 cells, 72 hours, CellTiter Glo; read-out: IC50, inhibition of KP4 cell proliferation
[2] = system: HT-1080 (fibrosarcoma) cells; assay: Cell viability (CellTiter Glo) assay, inhibition of HT-1080 cell proliferation; conditions: Homo sapiens, HT-1080 cells, 72 hours
[3] = system: 786-O (renal cell carcinoma) cells; assay: Cell viability (CellTiter Glo) assay, inhibition of 786-O cell proliferation; conditions: Homo sapiens, 786-0; 786-O cells, 72 hours, CellTiter Glo; read-out: IC50, inhibition of 786-O cell proliferation
786-O cells = assay: Anti-proliferation activity in 786-O cells in the presence of a ferroptosis inhibitor (Ferrostatin-1 or Liproxstatin-1); conditions: Homo sapiens
Experimental: In one assessment, cells (KP4, 786-0 and HT-1080) were seeded (700 cells/well, 1000 cells/well or 3000 cells/well) in 384-well or 96-well plates and incubated at 37° C./5% CO2 for 22-24 hours. A series of 8 different concentrations of compound stocks were created by 5-fold serial dilution in DMSO. These compounds were further diluted in culture media and were then added to cells (final concentrations: 100 μM, 20 μM, 4 μM, 0.8 μM, 0.16 μM, […].). After 72 hours of incubation, 30 μL of CellTiter Glo reagent (Promega) was added to each well and luminescence was measured after 10 minutes using SpectraMax M5/M5e (Molecular Devices). Luminescence from cells treated with DMSO alone was set as background and % of inhibition was calculated as follows: […]
Anti-proliferation activity of various compounds was also tested in the presence of an ferroptosis inhibitor, Ferrostatin-1 (2 μM) or Liproxstatin-1 (2 μM). Certain results are provided in Table 4 and Table 5 as examples. “A” indicates an IC50≤100 nM; “B” indicates an IC50 of >100 nM and ≤500 nM; “C” indicates an IC50>500 nM and ≤5 μM; and “D” indicates an IC50>5 μM.

[4] = 786-0, 72 h, no ferroptosis inhibitor, read-out: IC50, No Ferroptosis Inhibitor (Table 5)

Row | SMILES | IC50 [1] | IC50 [2] | IC50 [3] | IC50 (786-O cells; 786-0, Ferrostatin-1 (2 μM), read-out: IC50, With Ferrostatin-1) | IC50 (786-O cells; 786-0, no ferroptosis inhibitor, read-out: IC50, No Ferroptosis Inhibitor (Table 4)) | IC50 (786-O cells; [4])
1 | C[C@@H]1CN(C(=N)OCc2nc(Nc3ccc(Oc4ccccc4)cc3)c3cc[nH]c3n2)C[C@H](C)N1C(=O)OC(C)(C)C [Compound D2] | < 100 nM | 100 to 500 nM |  |  |  | 
2 | CN(C)C(=N)OCc1nc(Nc2ccc(Oc3ccccc3)cc2)c2cc[nH]c2n1 [Compound D3] | 500 to 5000 nM | 500 to 5000 nM | 500 to 5000 nM |  |  | 
3 | N=C(OCc1nc(Nc2ccc(Oc3ccccc3)cc2)c2cc[nH]c2n1)N1CCC(F)(F)CC1 [Compound D6] | 100 to 500 nM |  | 100 to 500 nM | > 5000 nM | 100 to 500 nM | 
4 | CC1(C)CN(c2ccc(Oc3ccccc3)cc2)c2nc(COC(=N)N3CCCCC3C(F)(F)F)nc(N)c21 (stereo not drawn) [Compound E4] |  | < 100 nM | < 100 nM |  |  | 
5 | CCN1CCN(C(=N)OCc2nc(N)c3c(n2)N(c2ccc(Oc4ccccc4)cc2)CC3(C)C)C2(CC2)C1=O [Compound E5] |  | 100 to 500 nM | 100 to 500 nM |  |  | 
6 | CNc1nc(COC(=N)N2CCC[C@@H]2C(F)(F)F)nc2c1C1(CCCC1)C(=O)N2c1cnc(N2C[C@@H](C)O[C@@H](C)C2)nc1 [Compound E88, (7′-{2-[(2R,6S)-2,6-dimethylmorpholin-4-yl]pyrimidin-5-yl}-4′-(methylamino)-6′-oxo-6′,7′-dihydrospiro[cyclopentane-1,5′-pyrrolo[2,3-d]pyrimidin]-2′-yl)methyl (2R)-2-(trifluoromethyl)pyrrolidine-1-carboximidate] |  |  | < 100 nM |  |  | < 100 nM
7 | N=C(OCc1nc(N)c2c(n1)N(c1cnc(N3C4CCC3COC4)nc1)C(=O)C21CCCC1)N1CCC[C@@H]1C(F)(F)F [Compound E93] |  |  | < 100 nM |  |  | < 100 nM
8 | CNc1nc(COC(=N)N2CCC[C@@H]2C(F)(F)F)nc2c1C1(CCCC1)C(=O)N2c1cnc(N2C3CCC2COC3)nc1 [Compound E94] |  |  | < 100 nM |  |  | < 100 nM
9 | CNc1nc(COC(=N)N2CCOCC2C(F)(F)F)nc2c1C1(CCCC1)C(=O)N2c1cnc(N2C[C@@H](C)O[C@@H](C)C2)nc1 (stereo partly drawn) [Compound E97] |  |  | 100 to 500 nM |  |  | 100 to 500 nM
10 | CNc1nc(COC(=N)N2CCC[C@@H]2C(F)(F)F)nc2c1C1(CCCC1)C(=O)N2c1cnc(C2CCOCC2)nc1 [Compound E99] |  |  | 500 to 5000 nM |  |  | 500 to 5000 nM
11 | N=C(OCc1nc(N)c2c(n1)N(c1cnc(C3CCOCC3)nc1)C(=O)C21CCCC1)N1CCC[C@@H]1C(F)(F)F [Compound E100, (4′-amino-6′-oxo-7′-(2-(tetrahydro-2H-pyran-4-yl)pyrimidin-5-yl)-6′,7′-dihydrospiro[cyclopentane-1,5′-pyrrolo[2,3-d]pyrimidin]-2′-yl)methyl (R)-2-(trifluoromethyl)pyrrolidine-1-carbimidate] |  |  | 100 to 500 nM |  |  | 100 to 500 nM

The next lines start with the values.

Row | IC50 [1] | IC50 [2] | IC50 [3] | IC50 (786-O cells; 786-0, Ferrostatin-1 (2 μM), read-out: IC50, With Ferrostatin-1) | IC50 (786-O cells; 786-0, no ferroptosis inhibitor, read-out: IC50, No Ferroptosis Inhibitor (Table 4)) | IC50 (786-O cells; [4]) | SMILES
12 | 100 to 500 nM | 100 to 500 nM | < 100 nM |  |  |  | N=C(NC1CCCCC1)OCc1nc(N)nc(Nc2ccc(Oc3ccccc3)cc2)n1 [Compound F9]
13 |  |  | < 100 nM |  |  | < 100 nM | N=C(OCc1nc(N)nc(Nc2ccc(Oc3ccccc3)cc2)n1)N1CCCCC1C(F)(F)F (stereo not drawn) [Compound F12]
14 |  | 500 to 5000 nM |  |  |  |  | N=C(OCc1nc(N)nc(Nc2ccc(Oc3ccccc3)cc2)n1)N1CCCCC1=O [Compound F18]
15 |  | 500 to 5000 nM | 100 to 500 nM |  |  | 100 to 500 nM | CCN1CCN(C(=N)OCc2nc(N)nc(Nc3ccc(Oc4ccccc4)cc3)n2)C2(CC2)C1=O [Compound F19]
16 |  | 100 to 500 nM | 100 to 500 nM |  |  | 100 to 500 nM | N=C(NC12CC3CC(CC(C3)C1)C2)OCc1nc(N)nc(Nc2ccc(Oc3ccccc3)cc2)n1 [Compound F20]
17 |  |  | < 100 nM |  |  | < 100 nM | C#CCOc1cccc(Oc2ccc(Nc3nc(N)nc(COC(=N)N4CCC(F)(F)CC4)n3)cc2)c1 [Compound F21]
18 |  | 100 to 500 nM | < 100 nM |  |  | < 100 nM | CN(C(=N)OCc1nc(N)nc(Nc2ccc(Oc3ccccc3)cc2)n1)C1CCCCC1 [Compound F22]
19 | 100 to 500 nM | 100 to 500 nM | 100 to 500 nM |  |  |  | CN(C)C(=N)OCc1nc(N)nc(Nc2ccc(Oc3ccccc3)cc2)n1 [Compound F31]
